Like-named read-outs stand apart in the source and are kept apart here.

In series [1] the target is HIV-1 reverse transcriptase (HIV-RT enzyme) (Human immunodeficiency virus type 1 group M subtype B, UniProt P03366). Kind of series: HIV-1 Reverse Transcriptase Assay Inhibitor IC50 Determination (RNA-dependent DNA polymerase activity, SPA). The class given is biochemical. The method, then:
HIV-1 Reverse Transcriptase Assay Inhibitor IC50 Determination
RNA-dependent DNA polymerase activity was measured using a biotinylated primer oligonucleotide and tritiated dNTP substrate. Newly synthesized DNA was quantified by capturing the biotinylated primer molecules on streptavidin coated Scintillation Proximity Assay (SPA) beads (Amersham). The sequences of the polymerase assay substrate were: 18 nt DNA primer, 5′-Biotin/GTC CCT GTT CGG GCG CCA-3′; 47 nt RNA template, 5′-GGGUCUCUCUGGUUAGACCACUCUAGCAGUGGCGCCCGAACAGGGAC-3′. The biotinylated DNA primer was obtained from the Integrated DNA Technologies Inc. and the RNA template was synthesized by Dharmacon. The DNA polymerase assay (final volume 50 μl) contained 32 nM biotinylated DNA primer, 64 nM RNA substrate, dGTP, dCTP, dTTP (each at 5 μM), 103 nM [^3H]-dATP (specific activity=[…]), in 45 mM Tris-HCl, pH 8.0, 45 mM NaCl, 2.7 mM Mg(CH3COO)2, 0.045% Triton X-100 w/v, 0.9 mM EDTA. The reactions contained 5 μl of serial compound dilutions in 100% DMSO for IC50 determination and the final concentrations of DMSO were 10%. Reactions were initiated by the addition of […] of the HIV-RT enzyme (final concentrations of 1-3 nM). Protein concentrations were adjusted to provide linear product formation for at least 30 min of incubation. After incubation at 30° for 30 min, the reaction was quenched by addition of 50 μl of 200 mM EDTA (pH 8.0) and 2 mg/ml SA-PVT SPA beads (Amersham, RPNQ0009, reconstituted in 20 mM Tris-HCl, pH 8.0, 100 mM EDTA and 1% BSA). The beads were left to settle overnight and the SPA signals were counted in a 96-well top counter-NXT (Packard). IC50 values were obtained by sigmoidal regression analysis using GraphPad Prism 3.0 (GraphPad Software, Inc.).

The test system of series [2] is wild-type laboratory strain HIV-1HXB2. Nature of the series: Recombinant HIV-1 Antiviral Assay (MTT cell viability assay with MT-4 cells). The class given is cell-based. Conditions: Human immunodeficiency virus 1, MT4, 120 h. On the procedure: Recombinant HIV-1 Antiviral Assay
The sensitivity of a wild-type laboratory strain HIV-1HXB2 to described compounds was determined by the 3-[4,5-dimethylthiazol-2yl]-2,5-diphenyltetrazolium bromide (MTT) cell viability assay with MT-4 cells (R. Pauwels et al., “Rapid and automated tetrazolium-based colorimetric assay for the detection of anti-HIV compounds,” J. Virological Methods 1988 20:309-321). Briefly, MT-4 cells were incubated with virus (MOI 0.0001) for 1 h at 37° C. and then resuspended at 7.5×10^5/mL in RPMI 1640 (with out phenol) (Gibco) with 10% FCS and antibiotics and plated out onto a 96 well plate (Corning Costar, USA). After 5 days incubation 20 μL of MTT (Sigma-Aldrich) (5 mg/mL in PBS) was added and the plates were incubated for 2 h before the addition of 170 μL of acidified IPA. The absorbance was measured at 540 nm and the TCID50 determined by Spearman-Karber method.

The mark [3] stands for this setting: SPA polymerase assay, 30 min at 30°, read-out: HIVRT inhibition IC50.
Setting [4] is: MT-4 cells infected with HIV-1HXB2, MTT readout after 5 days, read-out: Antiviral Activity IC50.

On to `Cc1cc(C#N)cc(C)c1Oc1ccnc(NC2CCN(c3cc(Cl)cc(C#N)c3)CC2)n1` [IV-23], for which, in series [1] (setting [3]), the half-inhibitory concentration (IC50) was 37.7 nM.

Compound `Cc1cc(C#N)cc(C)c1Oc1ccnc(NC2CCN(Cc3ccccc3)CC2)n1` [I-1, 4-[2-(1-Benzyl-piperidin-4-ylamino)-pyrimidin-4-yloxy]-3,5-dimethyl-benzonitrile] showed a melting point of 162 to 163.3 °C.

For `Cc1cc(C#N)cc(C)c1Nc1ccnc(NC2CCN(Cc3ccc(S(C)(=O)=O)cc3Cl)CC2)n1` [III-1, 4-{2-[1-(2-Chloro-4-methanesulfonyl-benzyl)-piperidin-4-ylamino]-pyrimidin-4-ylamino}-3,5-dimethyl-benzonitrile], the concentration for half-maximal inhibition (IC50) in series [1] is 25.7 nM; in series [2] (setting [4]) it was 0.0022 µM.

On to `Cc1cc(C#N)cc(C)c1Oc1ccnc(NC2CCN(Cc3ccc(S(C)(=O)=O)cc3)CC2)n1` [I-3, 4-{2-[1-(4-Methanesulfonyl-benzyl)-piperidin-4-ylamino]-pyrimidin-4-yloxy}-3,5-dimethyl-benzonitrile], for which the values for the IC50 in series [1] and in series [2] (setting [4]) were 34.1 nM and 0.003 µM, respectively.

Consider `Cc1cc(C#N)cc(C)c1Nc1nc(NC2CCN(c3cccc(C(N)=O)c3)CC2)ncc1Br` [V-5], for which the results for the IC50 in series [1] and in series [2] (setting [4]) were 28.1 nM and 0.0015 µM, respectively.

For the compound `Cc1cc(C#N)cc(C)c1Oc1ccnc(NC2CCN(c3cccc(S(N)(=O)=O)c3)CC2)n1` [IV-3], the IC50 in series [1] stood at 14.7 nM; in series [2] (setting [4]), 0.0004 µM.

Regarding `Cc1cc(C#N)cc(Cl)c1Oc1nc(NC2CCN(c3cccc(C(N)=O)c3)CC2)ncc1Br` [IV-13], the results for the IC50 in series [1] and in series [2] (setting [4]) were 27.9 nM and 0.0058 µM, respectively.

In the case of `Cc1cc(C#N)cc(C)c1Oc1nc(NC2CCN(Cc3ccc(S(N)(=O)=O)cc3Cl)CC2)nc(N)c1Br` [II-1], the half-maximal inhibitory concentration (IC50) in series [1] (setting [3]) amounted to 105 nM; in series [2] (read-out: Antiviral Activity IC50(μM)), 0.0086 µM.

As to `Cc1cc(C#N)cc(C)c1Nc1nc(NC2CCN(c3cccc(C#N)c3)CC2)ncc1Br` [V-3], the half-inhibitory concentration (IC50) in series [1] (setting [3]) is 40 nM.

For the compound `Cc1cc(C#N)cc(C)c1Oc1nc(NC2CCN(Cc3ccccc3)CC2)ncc1Br` [I-2, 4-[2-(1-Benzyl-piperidin-4-ylamino)-5-bromo-pyrimidin-4-yloxy]-3,5-dimethyl-benzonitrile], the melting point lay in the range of 158 to 159.8 °C.

The values are drawn from patent US7998969B2, “Non-nucleoside reverse transcriptase inhibitors” (Roche Palo Alto LLC, priority 2006, dated 2011).
